# Experimental data as given in US9376382B2, “N-substituted isopropyldimethyl azulene sulfonamide derivatives, and preparation method and use thereof” (Sichuan Guokang Pharmaceutical Co., Ltd., priority 2011, dated 2016).
# Tests used:
# [1] = High-temperature test (60° C.), stability study; type: physicochemical; conditions: open-stored; for Appearance Day 5: Day 5, cell wraps; for Appearance Day 5 / Appearance Day 10: first line given; for Appearance Day 10: Day 10, cell wraps;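 as to all read-outs here: samples kept uncovered in dishes at 60 °C for up to 10 days and examined on Day 5 and Day 10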
# Description: (§1) The test samples were open-stored in culture dishes at 60° C. for 10 days, and taken and detected on Day 5 and Day 10. • The characteristics, especially colour change were observed. • Melting points were measured by automatic melting point apparatus. • By self-reflection, TLC is used to observe whether the spot numbers were increased after 5 days and 10 days.
# [2] = High humidity test (25° C., relative humidity 90% ± 5%), stability study; type: physicochemical; conditions: RH 90% ± 5%; for Appearance Day 0: Day 0, cell wraps; for Appearance Day 0 / Appearance Day 5 / Appearance Day 10: first line given; for Appearance Day 5: Day 5, cell wraps; for Appearance Day 10: Day 10, cell wraps;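 as to all read-outs here: samples kept uncovered in sealed humidity desiccators, appearance judged mainly by colour change, melting point on an automatic apparatus, TLC checked for extra spots versus start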
# [3] = tested on: ethanol-induced gastric ulcer; assay: Anhydrous ethanol-induced gastric ulcer in mice; type: in vivo, Kunming mice; design: key to Gastri ulcer score (X ± SD) / Ulcer score (X ± SD) / Gastric ulcer score (X ± SD): summed pathology score: congestion 1, hemorrhage/erosion 1, linear erosion 3; conditions: for Inhibition rate (%) / Gastri ulcer score (X ± SD): Table 4; for Inhibition rate (%): inhibition rate of ulcer vs model group; for Gastri ulcer score (X ± SD): mice, intragastric once a day for five days, dose equimolar to azulene sulfonate sodium 3.0 mg/kg (Omeprazole 13.4 mg/kg), model group 13.00 ± 1.77; for anti-gastric ulcer effect in words: ethanol-induced gastric ulcer in mice, compared to the model group
# Description: Kunming mice, half male and half female, weighing 18-22 g, provided by the West China Animal Center
# (1) Azulene sodium sulphonate was added with 0.5% CMC to prepare a suspension with concentration of 0.15 mg/ml.
# (2) 20 mg of Omeprazole was added with 0.5% CMC to prepare a suspension with concentration of 0.67 mg/ml.
# Kunming mice were randomly grouped according the body weight (one model control group or negative control group, one Omeprazole control group or positive control group, one Azulene sodium sulphonate control group, twelve test drug groups), eight mice for each group, half male and half female.
# Administration: Model control group was administrated intragastrically with 0.5% CMC solution at a dose of 0.4 ml/20 g; Omeprazole control group was administrated intragastrically with Omeprazole at a dose of 0.4 ml/20 g, Azulene sodium sulphonate control group and each test drug groups were administrated intragastrically with their respective drug at a dose of 0.4 ml/20 g. The mice in each group were administrated once a day for successive five days. 0.5 hour after final administration, the mice in each group were administrated intragastrically with 0.5 ml of anhydrous ethanol, one hour later the mice were executed and dissected, and their stomaches were taken, washed and scored according to the pathological degree. For local congestion and rubefaction, score was 1; for petechial hemorrhage or erosion, score was respectively 1, for each linear erosion, score was 3. Statistical analysis was performed. Ulcer scores were calculated, significant differences between the groups were compared and the inhibition rates of ulcer were calculated [Inhibition rate of ulcer=(ulcer score of model group−ulcer score of drug administration group)/ulcer score of model group].
# [4] = Stability studies (light, humidity, heat), overall comparison; conditions: summary of high-temperature, high humidity and intense light tests
# Description: as §1
# The test samples were open-stored in closed constant humidity desiccators under the condition of 25° C. and relative humidity of 90%+5% for 10 days, and taken and detected on Day 5 and Day 10. Meanwhile, each sample was accurately weighed before and after test.
# (§2) The test samples were open-stored in “adjustable light boxes” under the conditions of illumination of 4500LX±500LX for 10 days, and taken and detected on Day 5 and Day 10 with regards to dry items. • The characteristics, especially colour change was observed. • Melting points were measured by an automatic melting point apparatus. • By self-reflection, TLC is used to observe whether the spot numbers were increased after 5 days and 10 days.
# [5] = Intense light irradiation test (4500LX ± 500LX), stability study; type: physicochemical; conditions: for Appearance Day 0: Day 0, cell wraps; for Appearance Day 0 / Appearance Day 5 / Appearance Day 10: first line given; for Appearance Day 5: Day 5, cell wraps; for Appearance Day 10: Day 10, cell wraps
# Description: as §2
Melting point Day 0 [1],Spot numbers on TLC Day 0 [1],Melting point Day 5 [1],Spot numbers on TLC Day 5 [1],Appearance Day 5 [1],Melting point Day 10 [1],Spot numbers on TLC Day 10 [1],Appearance Day 10 [1],Melting point Day 0 [2],Spot numbers on TLC Day 0 [2],hygroscopic rate (%) Day 0 [2] [%],Appearance Day 0 [2],Melting point Day 5 [2],Spot numbers on TLC Day 5 [2],hygroscopic rate (%) Day 5 [2] [%],Appearance Day 5 [2],Melting point Day 10 [2],Spot numbers on TLC Day 10 [2],Appearance Day 10 [2],Compound,Inhibition rate (%) [3] [%],also measured
114.0-115.5 °C,1,114.5-116.0 °C,1,purple,113.5-115.0 °C,1,purple,114.0-115.5 °C,1,0.97,purple,114.0-115.5 °C,1,1.24,purple,114.0-115.5 °C,1,purple,"COc1ccc(NS(=O)(=O)c2cc(C)c3cc(C(C)C)ccc(C)c2-3)c(OC)c1 [4b, N-(2,4-dimethoxyphenyl)-3,8-dimethyl-5-isopropyl-1-azulene sulfonamide]",52.77,"Gastri ulcer score (X ± SD) [3]: 6.14 ± 2.85; anti-gastric ulcer effect in words [3]: significantly relieve the pathological degree; melting point: 114 to 116 °C; light, humidity and heat stability in words [4]: better light, humidity and heat stability than azulene sulfonate sodium; Spot numbers on TLC Day 0 ([5]; Day 0): 1; Appearance Day 0 [5]: purple; Spot numbers on TLC Day 5 ([5]; Day 5): 1; Appearance Day 5 [5]: purple; Spot numbers on TLC Day 10 ([5]; Day 10): 1; Appearance Day 10 [5]: purple"
140.0-142.5 °C,1,141.5-142.5 °C,1,purple,140.0-142.5 °C,1,purple,140.0-142.5 °C,1,1.23,purple,140.0-142.5 °C,1,1.61,purple,140.0-142.5 °C,1,purple,"Cc1cc(S(=O)(=O)Nc2cccc3ccccc23)c2c(C)ccc(C(C)C)cc1-2 [4d, N-(1-naphthyl)-3,8-dimethyl-5-isopropyl-1-azulene sulfonamide]",50.54,"Gastri ulcer score (X ± SD) [3]: 6.43 ± 2.99; anti-gastric ulcer effect in words [3]: significantly relieve the pathological degree; melting point: 140 to 142 °C; light, humidity and heat stability in words [4]: better light, humidity and heat stability than azulene sulfonate sodium; Melting point Day 0 ([5]; Day 0): 140.0-142.5 °C; Spot numbers on TLC Day 0 ([5]; Day 0): 1; Appearance Day 0 [5]: purple; Melting point Day 5 ([5]; Day 5): 141.5-143.0 °C; Spot numbers on TLC Day 5 ([5]; Day 5): 1; Appearance Day 5 [5]: purple; Melting point Day 10 ([5]; Day 10): 140.0-142.0 °C; Spot numbers on TLC Day 10 ([5]; Day 10): 1; Appearance Day 10 [5]: purple"
